{"source": "patent US20210299286A1", "about": "“TETRAZINES FOR HIGH CLICK CONJUGATION YIELD IN VIVO AND HIGH CLICK RELEASE YIELD” (Tagworks Pharmaceuticals B.V., priority 2018, published 2021)", "key": {"[1]": {"experiment": "Second-order reaction rate constant with TCO derivative by UV spectroscopy", "type": "physicochemical", "conditions": "25% MeCN/PBS at 20° C.", "protocol": "The second-order reaction rate constants were calculated from the rate at which the absorption at 520 nm (specific for the TZ moiety) decreased (Table 4)."}, "[2]": {"system": "LS174T tumor-bearing mice", "experiment": "Tumor blocking experiment, mice pretreated with IgG-based ADC CC49-TCO-Dox", "type": "in vivo, mouse", "conditions": "CC49-TCO-Dox 5 mg/kg, clearing agent, TZ activator, probe [177Lu]Lu-5.1; compared with the other TZ's", "protocol": "(§1) The animal studies were performed in accordance with the principles established by the revised Dutch Act on Animal Experimentation (1997) and were approved by the institutional Animal Welfare Committee of the Maastricht University and Radboud University Nijmegen. The colorectal cancer (LS174T) mouse model was reported in Rossin et al. Bioconjug. Chem., 2016, 27, 1697-1706.\n(§2) To assess the in vivo reaction of TZ activators towards TCO-containing ADCs, tumor blocking experiments were performed as described in Rossin et al., Bioconjug. Chem. 2016, 27, 1697-1706.\nA series of 3,6-bisalkyl TZ activators (2.1, 2.2, 2.9, 2.11, 2.12) and 3-alkyl-6-pyridyl TZ activators (3.1, 3.2, 3.4) was tested in tumor-bearing mice (n=3-4) pretreated with an IgG-based ADC (CC49-TCO-Dox, DAR ca. 2) at a 5 mg/kg dose. A clearing agent (galactose-albumin-TZ, Rossin et al., J. Nucl. Med. 2013, 54, 1989-1995) was administered to the mice 24 post-ADC injection followed by the TZ activator (dose 10×: ca. 0.033 mmol/kg; close 100×: ca. 0.335 mmol/kg) 2 h later. One-hour after activation the mice were administered the highly reactive radiolabeled probe [^177Lu]Lu-5.1 (ca. 0.335 μmol/kg, ca. 1.5 MBq/mouse) and were euthanized 3 h later. All injections were performed intravenously. Tumors were harvested and the radioactivity was measured by γ-counting along with standards to determine the % injected dose per gram (% ID/g). […]"}, "[3]": {"experiment": "In vitro tetrazine stability (decrease of UV absorbance at 520 nm)", "type": "physicochemical", "conditions": "10% MeCN/PBS; read-out: In vitro tetrazine stability (h), t1/2 (converted)", "protocol": "The stability of tetrazines was evaluated by dissolving them in 10% MeCN/PBS at 37° C. and following the decrease of the tetrazine UV absorbance at 520 nm in time (Table 4)."}, "CC49-TCO-Dox [4]": {"system": "CC49-TCO-Dox", "experiment": "In vitro Dox release from CC49-TCO-Dox in 50% mouse serum", "type": "biochemical", "protocol": "(§3) Doxorubicin (Dox) release from the TCO-linked ADC CC49-TCO-Dox with various TZ activators in PBS and 50% mouse serum at 37° C. was evaluated in vitro as described in Rossin et al. Bioconjug. […] The results of these experiments are depicted in Tables 3 (PBS) and 4 (mouse serum). The release reactions were performed in triplicate unless otherwise stated in the result table."}, "CC49-TCO-Dox [5]": {"system": "CC49-TCO-Dox", "experiment": "In vitro Dox release from CC49-TCO-Dox in PBS", "type": "biochemical", "protocol": "as §3"}, "AVP0458-TCO-MMAE": {"system": "AVP0458-TCO-MMAE", "experiment": "MMAE release from diabody ADC with D8-MMAE internal standard (LC-SIM-MS)", "type": "biochemical", "conditions": "10 equiv of tetrazine, PBS/plasma (1/1), 37° C., after 24 h, n=3", "protocol": "In an alternative method MMAE release from diabody ADC (AVP0458-TCO-MMAE) was determined by using a deuterated internal standard D8-MMAE. ADC (1.1×10^−10 moles bound MMAE) and D8-MMAE (1.1×10^−10 moles) and 10 equiv of tetrazine were incubated in 100 uL PBS/plasma (1/1) at 37° C."}, "[6]": {"system": "LS174T tumor-bearing mice", "experiment": "Tumor blocking experiment, mice pretreated with diabody-based ADC AVP0458-TCO-MMAE", "type": "in vivo, mouse", "conditions": "AVP0458-TCO-MMAE ca. 2 mg/kg, activator 48 h later, probe [111In]In-5.1; compared with the other TZ's", "protocol": "as §1, §2\nA series of 3-pyrimidyl-6-alkyl TZ activators (4.1, 4.11, 4.13, 4.15, 4.26, 4.28) was then compared to compound 4.12 in LS174T tumor-bearing mice (n=3-5) pretreated with a diabody-based ADC (AVP0458-TCO-MMAE; DAR=4). The mice were injected the ADC at a ca. 2 mg/kg dose followed 48 h later by the activator (dose 1×: ca. 3.35 μmol/kg; dose 2.5×: ca. […]; dose 5×: ca. 0.017 mmol/kg; dose 10×: ca. 0.033 mmol/kg; dose 100×: ca. 0.335 mmol/kg) and, 1 h post-activator, by the [^111In]In-5.1 probe. Three hours ([…], 4.15) or 24 h (4.26, 4.28) post-probe injection the mice were euthanized and the tumor blocking capacity of the various activators at the administered dose (FIG. 2B) was calculated as reported above."}, "[7]": {"experiment": "Remark on stability of the free base", "type": "physicochemical", "conditions": "intramolecular nucleophilic attack by the amine"}, "[8]": {"experiment": "In vitro microsomal stability of TZ activators, human microsomes", "type": "in vitro ADME", "conditions": "5 μM activator, 0.5 mg/mL microsomes, normalized to 100% at t=0, LC-MS", "protocol": "(§4) The in vitro stability of activators 4.11, 4.13, and 4.15 was tested in the presence of human, mouse, rat and cynomolgus microsomes after 30 min incubation (normalized to 100% at t=0). Control samples were incubated with the same concentration of BSA. The activators (5 μM) were incubated in 20 mM phosphate buffer pH 7.4 containing the microsomes (0.5 mg/mL), 1 mM NADP, 5 mM glucose-6-phosphate, 1 U/mL glucose-6-phosphate dehydrogenase, and 2 mM MgCl2 at 37° C. and the measurements were performed by LC-MS. The amount of activator in solution was quantified using calibration curves."}, "[9]": {"experiment": "In vitro microsomal stability of TZ activators, rat microsomes", "type": "in vitro ADME", "conditions": "5 μM activator, 0.5 mg/mL microsomes, normalized to 100% at t=0, LC-MS", "protocol": "as §4"}, "[10]": {"experiment": "Control incubation with BSA in the microsomal stability test", "type": "in vitro ADME", "conditions": "control samples, same concentration of BSA", "protocol": "as §4"}, "[11]": {"experiment": "In vitro microsomal stability of TZ activators, mouse microsomes", "type": "in vitro ADME", "conditions": "5 μM activator, 0.5 mg/mL microsomes, normalized to 100% at t=0, LC-MS", "protocol": "as §4"}, "[12]": {"experiment": "In vitro microsomal stability of TZ activators, cynomolgus microsomes", "type": "in vitro ADME", "conditions": "5 μM activator, 0.5 mg/mL microsomes, normalized to 100% at t=0, LC-MS", "protocol": "as §4"}, "[13]": {"system": "LS174T human colon carcinoma cells", "experiment": "Cell proliferation (MTT) assay of ADCs with range of tetrazines", "type": "cell-based", "conditions": "3-day incubation", "protocol": "Cell proliferation was assessed after a 3-day incubation by means of an MTT assay and was expressed as the % of that obtained without treatment."}}}
{"smiles": "Cc1nnc(C)nn1", "note": "[Compound 2.1, 3,6-dimethyl-1,2,4,5-tetrazine]", "values": [{"measurement": "reactivity (k2)", "setting": "[1]", "value": 14, "unit": "M⁻¹ s⁻¹"}, {"measurement": "tumor blocking capacity (FIG. 2A)", "setting": "[2]", "value": "perform much worse"}, {"measurement": "half-life", "setting": "[3]", "value": 14, "unit": "h"}, {"measurement": "In vitro Dox release (%) from CC49-Dox at 37° C. in 50% mouse serum: 1 h", "setting": "CC49-TCO-Dox [4]; 1 h", "value": "64.6 ± 1.0", "unit": "%"}, {"measurement": "In vitro Dox release (%) from CC49-Dox at 37° C. in 50% mouse serum: 2 h", "setting": "CC49-TCO-Dox [4]; 2 h", "value": "68.7 ± 1.1", "unit": "%"}, {"measurement": "In vitro Dox release (%) from CC49-Dox at 37° C. in 50% mouse serum: 3 h", "setting": "CC49-TCO-Dox [4]; 3 h", "value": "69.7 ± 1.0", "unit": "%"}, {"measurement": "In vitro Dox release (%) from CC49-Dox at 37° C. in PBS: 1 h", "setting": "CC49-TCO-Dox [5]; 1 h", "value": 76.1, "unit": "%"}, {"measurement": "In vitro Dox release (%) from CC49-Dox at 37° C. in PBS: 2 h", "setting": "CC49-TCO-Dox [5]; 2 h", "value": 78.5, "unit": "%"}, {"measurement": "In vitro Dox release (%) from CC49-Dox at 37° C. in PBS: 3 h", "setting": "CC49-TCO-Dox [5]; 3 h", "value": 78.8, "unit": "%"}, {"measurement": "In vitro Dox release (%) from CC49-Dox at 37° C. in PBS: 24 h", "setting": "CC49-TCO-Dox [5]; 24 h", "value": 80.6, "unit": "%"}, {"measurement": "In vitro Dox release (%) from CC49-Dox at 37° C. in PBS: 48 h", "setting": "CC49-TCO-Dox [5]; 48 h", "value": 81.5, "unit": "%"}, {"measurement": "induced MMAE release (%) from AVP0458-TCO-MMAE", "setting": "AVP0458-TCO-MMAE", "value": "95 ± 0.4", "unit": "%"}]}
{"smiles": "Cc1nnc(-c2ncccn2)nn1", "note": "[Compound 4.1, 3-methyl-6-(pyrimidin-2-yl)-1,2,4,5-tetrazine, reference compound]", "values": [{"measurement": "reactivity (k2)", "setting": "[1]", "value": 250, "unit": "M⁻¹ s⁻¹"}, {"measurement": "half-life", "setting": "[3]", "value": 10, "unit": "h"}, {"measurement": "tumor blocking capacity (FIG. 2B)", "setting": "[6]", "value": "perform much worse"}, {"measurement": "induced MMAE release (%) from AVP0458-TCO-MMAE", "setting": "AVP0458-TCO-MMAE", "value": "69 ± 0.0", "unit": "%"}]}
{"smiles": "NCCCc1nnc(-c2ncccn2)nn1", "note": "[Compound 4.6]", "values": [{"measurement": "stability in free base form", "setting": "[7]", "value": "highly unstable"}]}
{"smiles": "CN(CCc1nnc(-c2ncccn2)nn1)C(=O)CCCC(=O)NC(CO)(CO)CO", "note": "[Compound 4.15]", "values": [{"measurement": "In vitro microsomal stability of TZ activators after 30 min incubation at 37° C.: Human", "setting": "[8]", "value": 87.7, "unit": "%"}, {"measurement": "In vitro microsomal stability of TZ activators after 30 min incubation at 37° C.: Rat", "setting": "[9]", "value": 91.1, "unit": "%"}, {"measurement": "In vitro microsomal stability of TZ activators after 30 min incubation at 37° C.: BSA", "setting": "[10]", "value": 87.5, "unit": "%"}, {"measurement": "In vitro microsomal stability of TZ activators after 30 min incubation at 37° C.: Mouse", "setting": "[11]", "value": 81.2, "unit": "%"}, {"measurement": "In vitro microsomal stability of TZ activators after 30 min incubation at 37° C.: Cynomolgus", "setting": "[12]", "value": "85.6 ± 0.5", "unit": "%"}, {"measurement": "induced MMAE release (%) from AVP0458-TCO-MMAE", "setting": "AVP0458-TCO-MMAE", "value": "55 ± 0.4", "unit": "%"}]}
{"smiles": "Cc1nnc(-c2nccc(CNC(=O)CN(CCN(CC(=O)O)CC(=O)O)CC(=O)O)n2)nn1", "note": "[Compound 4.26]", "values": [{"measurement": "reactivity (k2)", "setting": "[1]", "value": 135, "unit": "M⁻¹ s⁻¹"}, {"measurement": "cell growth inhibition, combination of ADC and activator", "setting": "[13]; CC49-TCO-Dox 0.1 μM or AVP0458-TCO-MMAE 1 nM plus activator 1 μM", "value": "growth inhibition approached that achieved with the corresponding amount of free drug"}, {"measurement": "cell growth inhibition, activators alone", "setting": "[13]; activator 1 μM alone", "value": "minimal cell growth inhibition"}, {"measurement": "half-life", "setting": "[3]", "value": 13, "unit": "h"}, {"measurement": "induced MMAE release (%) from AVP0458-TCO-MMAE", "setting": "AVP0458-TCO-MMAE", "value": "59 ± 0.6", "unit": "%"}]}
